According to patent US20210045385A1, “PYRIDAZINONE-SUBSTITUTED KETOXIMES AS HERBICIDES” (FMC Corporation, priority 2018, published 2021):

Columns and labels:
Type in all cases: in vivo
[1] = system: Italian ryegrass (Lolium multiflorum); test: Test A postemergence, visual plant response rating; settings: for Ryegrass, Italian plant response rating (0 to 100 scale): 500 g ai/ha, postemergence, 0 is no effect, 100 is complete control; for Ryegrass, Italian plant response rating: Postemergence, 125 g ai/ha, 0 to 100 scale (0 no effect, 100 complete control)
Outline: (§1)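 Greenhouse evaluation, approx. 10 days post-spray. Soil: loam + sand. Postemergence stage: 1–2 leaves, height 2–10 cm. Vehicle: non-phytotoxic solvent blend with surfactant. Score: visual injury on a 0 (no effect) to 100 (complete control) scale.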

[2] = system: barnyardgrass (Echinochloa crus-galli); test: Test A postemergence, visual plant response rating; settings: for Barnyardgrass plant response rating (0 to 100 scale): 500 g ai/ha, postemergence, 0 is no effect, 100 is complete control; for Barnyardgrass plant response rating: Postemergence, 125 g ai/ha, 0 to 100 scale (0 no effect, 100 complete control)
Outline: as §1

[3] = system: pigweed (Amaranthus retroflexus); test: Test A postemergence, visual plant response rating; settings: for Pigweed plant response rating (0 to 100 scale): 500 g ai/ha, postemergence, 0 is no effect, 100 is complete control; for Pigweed plant response rating: Postemergence, 125 g ai/ha, 0 to 100 scale (0 no effect, 100 complete control)
Outline: as §1

[4] = system: blackgrass (Alopecurus myosuroides); test: Test A postemergence, visual plant response rating; settings: for Blackgrass plant response rating (0 to 100 scale): 500 g ai/ha, postemergence, 0 is no effect, 100 is complete control; for Blackgrass plant response rating: Postemergence, 125 g ai/ha, 0 to 100 scale (0 no effect, 100 complete control)
Outline: as §1

[5] = system: wheat (Triticum aestivum); test: Test A postemergence, visual plant response rating; settings: for Wheat plant response rating (0 to 100 scale): 500 g ai/ha, postemergence, 0 is no effect, 100 is complete control; for Wheat plant response rating: Postemergence, 125 g ai/ha, 0 to 100 scale (0 no effect, 100 complete control)
Outline: as §1

[6] = system: foxtail, giant (giant foxtail, Setaria faberii); test: Test A postemergence, visual plant response rating; settings: for Foxtail, Giant plant response rating (0 to 100 scale): 500 g ai/ha, postemergence, 0 is no effect, 100 is complete control; for Foxtail, Giant plant response rating: Postemergence, 125 g ai/ha, 0 to 100 scale (0 no effect, 100 complete control)
Outline: as §1

corn (Zea mays) = test: Test A postemergence, visual plant response rating; settings: for Corn plant response rating (0 to 100 scale): 500 g ai/ha, postemergence, 0 is no effect, 100 is complete control; for Corn plant response rating: Postemergence, 125 g ai/ha, 0 to 100 scale (0 no effect, 100 complete control)
Outline: as §1

[7] = system: ragweed (common ragweed, Ambrosia elatior); test: Test A postemergence, visual plant response rating; settings: for Ragweed plant response rating (0 to 100 scale): 500 g ai/ha, postemergence, 0 is no effect, 100 is complete control; for Ragweed plant response rating: Postemergence, 125 g ai/ha, 0 to 100 scale (0 no effect, 100 complete control)
Outline: as §1

kochia (Kochia scoparia) [8] = test: Test A postemergence, visual plant response rating; settings: for Kochia plant response rating (0 to 100 scale): 500 g ai/ha, postemergence, 0 is no effect, 100 is complete control; for Kochia plant response rating: Postemergence, 125 g ai/ha, 0 to 100 scale (0 no effect, 100 complete control)
Outline: as §1

[9] = system: galium (catchweed bedstraw, Galium aparine); test: Test A postemergence, visual plant response rating; settings: for Galium plant response rating (0 to 100 scale): 500 g ai/ha, postemergence, 0 is no effect, 100 is complete control; for Galium plant response rating: Postemergence, 125 g ai/ha, 0 to 100 scale (0 no effect, 100 complete control)
Outline: as §1

rice (Oryza sativa) = test: Test B flooded paddy test, visual plant response rating; settings: 250 g ai/ha, Flood, applied to paddy water, 2-leaf stage, evaluated after 13 to 15 days
Outline: (§2)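 Seedlings at 2 leaves; compound into paddy water (3 cm flood, maintained); 13–15 d greenhouse; visual score relative to controls.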

[10] = system: ducksalad (Heteranhera limosa); test: as above; settings: 250 g ai/ha, Flood, applied to paddy water, 2-leaf stage, evaluated after 13 to 15 days
Outline: as §2

[11] = system: barnyardgrass (Echinochloa crus-galli); test: as above; settings: 250 g ai/ha, Flood, applied to paddy water, 2-leaf stage, evaluated after 13 to 15 days
Outline: as §2

[12] = system: sedge, umbrella (small-flower umbrella sedge, Cyperus difformis); test: as above; settings: 250 g ai/ha, Flood, applied to paddy water, 2-leaf stage, evaluated after 13 to 15 days
Outline: as §2

[13] = system: Italian ryegrass (Lolium multiflorum); test: Test A preemergence, visual plant response rating; settings: for Ryegrass, Italian plant response rating: 125 g ai/ha, preemergence, 0 to 100 scale, 0 no effect, 100 complete control; for Ryegrass, Italian plant response rating (0 to 100 scale): 500 g ai/ha Preemergence, approx. 10 days
Outline: as §1

[14] = system: barnyardgrass (Echinochloa crus-galli); test: Test A preemergence, visual plant response rating; settings: for Barnyardgrass plant response rating: 125 g ai/ha, preemergence, 0 to 100 scale, 0 no effect, 100 complete control; for Barnyardgrass plant response rating (0 to 100 scale): 500 g ai/ha Preemergence, approx. 10 days
Outline: as §1

[15] = system: pigweed (Amaranthus retroflexus); test: Test A preemergence, visual plant response rating; settings: for Pigweed plant response rating: 125 g ai/ha, preemergence, 0 to 100 scale, 0 no effect, 100 complete control; for Pigweed plant response rating (0 to 100 scale): 500 g ai/ha Preemergence, approx. 10 days
Outline: as §1

[16] = system: foxtail, giant (giant foxtail, Setaria faberii); test: Test A preemergence, visual plant response rating; settings: for Foxtail, Giant plant response rating: 125 g ai/ha, preemergence, 0 to 100 scale, 0 no effect, 100 complete control; for Foxtail, Giant plant response rating (0 to 100 scale): 500 g ai/ha Preemergence, approx. 10 days
Outline: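 Greenhouse pot test in loam–sand soil mix: compound in a surfactant-containing non-phytotoxic solvent applied preemergence (directed soil spray) or postemergence (one- to two-leaf plants, 2–10 cm). Injury scored visually after ~10 days, 0–100.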

[17] = system: ragweed (common ragweed, Ambrosia elatior); test: Test A preemergence, visual plant response rating; settings: for Ragweed plant response rating: 125 g ai/ha, preemergence, 0 to 100 scale, 0 no effect, 100 complete control; for Ragweed plant response rating (0 to 100 scale): 500 g ai/ha Preemergence, approx. 10 days
Outline: as §1

kochia (Kochia scoparia) [18] = test: Test A preemergence, visual plant response rating; settings: for Kochia plant response rating: 125 g ai/ha, preemergence, 0 to 100 scale, 0 no effect, 100 complete control; for Kochia plant response rating (0 to 100 scale): 500 g ai/ha Preemergence, approx. 10 days
Outline: as §1

SMILES	Ryegrass, Italian plant response rating (0 to 100 scale) [1]	Ryegrass, Italian plant response rating [1]	Barnyardgrass plant response rating (0 to 100 scale) [2]	Barnyardgrass plant response rating [2]	Pigweed plant response rating (0 to 100 scale) [3]	Pigweed plant response rating [3]	Blackgrass plant response rating (0 to 100 scale) [4]	Blackgrass plant response rating [4]	Wheat plant response rating (0 to 100 scale) [5]	Wheat plant response rating [5]	Foxtail, Giant plant response rating (0 to 100 scale) [6]	Foxtail, Giant plant response rating [6]	Corn plant response rating (0 to 100 scale) (corn (Zea mays))	Corn plant response rating (corn (Zea mays))	Ragweed plant response rating (0 to 100 scale) [7]	Ragweed plant response rating [7]	Kochia plant response rating (0 to 100 scale) (kochia (Kochia scoparia) [8])	Kochia plant response rating (kochia (Kochia scoparia) [8])	Galium plant response rating (0 to 100 scale) [9]	Galium plant response rating [9]	also measured
CON=C(c1c(O)c(C)nn(C)c1=O)c1ccc(Cl)c2ccccc12 [Compound 130]	90	30	30	30	80	70	70	50	40	10	70	30	30	10	80	60	70	50	90	80	Plant response rating, Rice (0 to 100 scale, 0 is no effect, 100 is complete control) (rice (Oryza sativa)): 0; Plant response rating, Ducksalad (0 to 100 scale, 0 is no effect, 100 is complete control) [10]: 0; Plant response rating, Barnyardgrass (0 to 100 scale, 0 is no effect, 100 is complete control) [11]: 0; Plant response rating, Sedge, Umbrella (0 to 100 scale, 0 is no effect, 100 is complete control) [12]: 35; Ryegrass, Italian plant response rating [13]: 30; Ryegrass, Italian plant response rating (0 to 100 scale) [13]: 50; Barnyardgrass plant response rating [14]: 0; Barnyardgrass plant response rating (0 to 100 scale) [14]: 70; Pigweed plant response rating [15]: 50; Pigweed plant response rating (0 to 100 scale) [15]: 50; Foxtail, Giant plant response rating [16]: 30; Foxtail, Giant plant response rating (0 to 100 scale) [16]: 60; Ragweed plant response rating [17]: 20; Ragweed plant response rating (0 to 100 scale) [17]: 50; Kochia plant response rating (kochia (Kochia scoparia) [18]): 0; Kochia plant response rating (0 to 100 scale) (kochia (Kochia scoparia) [18]): 0
CON=C(c1c(O)c(C)nn(C)c1=O)c1ccc(C)c2ccccc12 [Compound 131]	10	0	50	20	10	0	50	30	0	0	50	10	20	0	80	80	30	10	80	80	Plant response rating, Rice (0 to 100 scale, 0 is no effect, 100 is complete control) (rice (Oryza sativa)): 0; Plant response rating, Ducksalad (0 to 100 scale, 0 is no effect, 100 is complete control) [10]: 0; Plant response rating, Barnyardgrass (0 to 100 scale, 0 is no effect, 100 is complete control) [11]: 0; Plant response rating, Sedge, Umbrella (0 to 100 scale, 0 is no effect, 100 is complete control) [12]: 0; Ryegrass, Italian plant response rating [13]: 0; Ryegrass, Italian plant response rating (0 to 100 scale) [13]: 0; Barnyardgrass plant response rating [14]: 0; Barnyardgrass plant response rating (0 to 100 scale) [14]: 60; Pigweed plant response rating [15]: 0; Pigweed plant response rating (0 to 100 scale) [15]: 0; Foxtail, Giant plant response rating [16]: 60; Foxtail, Giant plant response rating (0 to 100 scale) [16]: 70; Ragweed plant response rating [17]: 60; Ragweed plant response rating (0 to 100 scale) [17]: 80; Kochia plant response rating (kochia (Kochia scoparia) [18]): 0; Kochia plant response rating (0 to 100 scale) (kochia (Kochia scoparia) [18]): 20
